Values of other authors, collected in patent publication US20090270438A1, “Novel compositions and formulations” (priority 2006, published 2009).

Settings: Pharmaceutical Codex

## COC12CCC3(CC1C(C)(O)C(C)(C)C)C1Cc4ccc(O)c5c4C3(CCN1CC1CC1)C2O5 (stereo not shown) [buprenorphine, Buprenorphine]
  pKa: 8.5
